{"source": "patent US11786503B2", "about": "“Pharmaceutical compositions and methods for countering chemotherapy induced cardiotoxicity” (Auransa Inc., priority 2016, dated 2023)", "key": {"[1]": {"test_system": "cardiomyocytes differentiated from induced pluripotent stem cells", "test": "long-term mitochondrial health, TMRM, 7 days (Example 19)", "assay_type": "cell-based, human", "settings": "doxorubicin and vitexin, compared to doxorubicin or doxorubicin and dexrazoxane"}, "[2]": {"test_system": "cardiomyocytes differentiated from induced pluripotent stem cells", "test": "doxorubicin-induced apoptosis, TUNEL dye, 48 hours (Example 18)", "assay_type": "cell-based, human", "settings": "1 μM doxorubicin, VIT 115 μM, Dex 160 μM, AMB 0.76 μM, NAC 50 μM, KAE 17 μM, MES 10 μM", "protocol": "Following treatment, the samples were incubated with a TUNEL dye to indicate apoptosis-positive cells, and a second dye to identify cell nuclei."}, "[3]": {"test_system": "cardiomyocytes differentiated from induced pluripotent stem cells", "test": "long term toxicity on electrophysiology, active electrodes (Example 24)", "assay_type": "cell-based", "settings": "various concentrations, at least 5 days", "protocol": "Samples were either mock-treated with 0.1% DMSO, or treated with various concentrations of the indicated drug. Following treatment, the percentage of active electrodes in each sample was measured for at least 5 days. Percentage of active electrodes was quantified and graphed in a time course."}, "[4]": {"test_system": "cardiomyocytes differentiated from induced pluripotent stem cells", "test": "acute toxicity on electrophysiology, MEA beat period and field potential duration (Example 23)", "assay_type": "cell-based", "settings": "lower drug concentration, at least 20 minutes", "protocol": "Samples were either mock-treated with 0.1% DMSO, or treated with increasing concentrations of the indicated drug for at least 20 minutes. Cardiomyocytes were treated with the hERG potassium channel blocker E4031 as a control. Following treatment, the beat period and field potential duration (FPD) were measured in each sample using the MEA."}, "[5]": {"test_system": "cardiomyocytes differentiated from induced pluripotent stem cells", "test": "electrophysiological activity with doxorubicin, active electrodes (Example 20)", "assay_type": "cell-based, human", "settings": "for decrease in the number of active electrodes: 24 hours", "protocol": "Samples were either mock-treated with 0.1% DMSO, treated with 1 μM doxorubicin, or co-treated with 1 μM doxorubicin and various concentrations of vitexin (e.g., 11.6 μM, 37 μM, or 116 μM). Following treatment, the percentage of active electrodes in each sample was measured for 72 hours. Percentage of active electrodes was quantified and graphed in a time course (FIG. 28A). The average number of active electrodes per well was quantified and graphed at 30 hours after the treatment (FIG. 28B, n=6, standard deviation is shown as error bars)."}, "[6]": {"test_system": "A549 cells", "test": "doxorubicin-mediated death of lung cancer cells, CellTiter-Glo (Example 22)", "assay_type": "cell-based", "settings": "co-treated with increasing concentrations of doxorubicin, 72 hours", "protocol": "A549 cells (lung cancer) were cultured for 1 day before performing experiments. […] XLFit was used for curve fitting."}, "[7]": {"test_system": "MDA-MB-231 cells", "settings": "co-treated with increasing concentrations of doxorubicin, 72 hours"}}}
{"smiles": "O=c1cc(-c2ccc(O)cc2)oc2c([C@@H]3O[C@H](CO)[C@@H](O)[C@H](O)[C@H]3O)c(O)cc(O)c12", "note": "[vitexin]", "values": [{"measurement": "long term mitochondrial protection", "setting": "[1]", "value": "improved long term mitochondrial protection"}, {"measurement": "decrease in apoptosis, compared to doxorubicin without protective agent", "setting": "[2]", "value": "at least 60%"}, {"measurement": "decrease in the number of active electrodes relative to the mock-treated sample", "setting": "[3]", "value": "no observable decrease"}, {"measurement": "difference in beat period or field potential duration vs control samples", "setting": "[4]", "value": "no appreciable difference"}, {"measurement": "decrease in the number of active electrodes", "setting": "[5]; 1 μM doxorubicin and 11.6 μM vitexin", "value": "~50", "unit": "%"}, {"measurement": "decrease in the number of active electrodes", "setting": "[5]; 1 μM doxorubicin and 37 μM vitexin", "value": "~25", "unit": "%"}, {"measurement": "decrease in the number of active electrodes", "setting": "[5]; 1 μM doxorubicin and 116 μM vitexin", "value": "~0", "unit": "%"}, {"measurement": "average number of active electrodes", "setting": "[5]; 1 μM doxorubicin and 116 μM vitexin, 30 hours", "value": "about 10 active electrodes"}, {"measurement": "difference in the percentage of cell death vs doxorubicin without protective agent", "setting": "[6]", "value": "no significant difference"}, {"measurement": "difference in the percentage of cell death vs doxorubicin without protective agent", "setting": "[7]", "value": "no significant difference"}]}
